This note sets out measurements from ChEMBL document CHEMBL1212760, “First isolation of the blaOXA-23 carbapenemase gene from an environmental Acinetobacter baumannii isolate” (2010).

In brackets after ≈: the same amount, converted by molar mass. Some results are limits rather than exact numbers.

The assay concerns Acinetobacter baumannii. Briefly: Antimicrobial activity against Acinetobacter baumannii B9 containing carbapenemase blaOXA-23 gene assessed as growth inhibition by Etest method. It is filed as functional.
Consider `NCC[C@H](O)C(=O)N[C@@H]1C[C@H](N)[C@@H](O[C@H]2O[C@H](CN)[C@@H](O)[C@H](O)[C@H]2O)[C@H](O)[C@H]1O[C@H]1O[C@H](CO)[C@@H](O)[C@H](N)[C@H]1O` [AMIKACIN], for which the MIC (as a rule, the lowest concentration found to suppress growth) was 8 µg/mL (≈ 13.7 µM).

Take `CC1(C)S[C@@H]2[C@H](NC(=O)[C@H](N)c3ccc(O)cc3)C(=O)N2[C@H]1C(=O)O` [AMOXICILLIN]: the MIC was more than 256 µg/mL. Take `C[C@H]1[C@H](NC(=O)/C(=N\OC(C)(C)C(=O)O)c2csc(N)n2)C(=O)N1S(=O)(=O)O` [AZTREONAM]: the MIC is 32 µg/mL (≈ 73.5 µM). On to `CO/N=C(\C(=O)N[C@@H]1C(=O)N2C(C(=O)[O-])=C(C[N+]3(C)CCCC3)CS[C@H]12)c1csc(N)n1` [CEFEPIME], for which the minimal inhibitory concentration (MIC) is more than 256 µg/mL. Take `CO/N=C(\C(=O)N[C@@H]1C(=O)N2C(C(=O)O)=C(COC(C)=O)CS[C@H]12)c1csc(N)n1` [CEFOTAXIME]: the MIC was more than 256 µg/mL.

As to `CO/N=C(\C(=O)N[C@@H]1C(=O)N2C(C(=O)[O-])=C(C[n+]3cccc4c3CCC4)CS[C@H]12)c1csc(N)n1` [CEFPIROME], the MIC is more than 256 µg/mL. As for `CC(C)(O/N=C(\C(=O)N[C@@H]1C(=O)N2C(C(=O)[O-])=C(C[n+]3ccccc3)CS[C@H]12)c1csc(N)n1)C(=O)O` [CEFTAZIDIME], the minimum inhibitory concentration (MIC) was more than 256 µg/mL. Under `CO/N=C(\C(=O)N[C@@H]1C(=O)N2C(C(=O)O)=C(COC(N)=O)CS[C@H]12)c1ccco1` [CEFUROXIME] stands more than 256 µg/mL; under `CC(=O)OCC1=C(C(=O)O)N2C(=O)[C@@H](NC(=O)Cc3cccs3)[C@H]2SC1` [CEPHALOTHIN], more than 256 µg/mL. As to `O=C(O)c1cn(C2CC2)c2cc(N3CCNCC3)c(F)cc2c1=O` [CIPROFLOXACIN], the MIC was more than 32 µg/mL.

In the case of `C[C@@H](O)[C@H]1C(=O)N2C(C(=O)O)=C(S[C@@H]3CN[C@H](C(=O)Nc4cccc(C(=O)O)c4)C3)[C@H](C)[C@H]12` [ERTAPENEM], the MIC is more than 32 µg/mL. The same measure for `C[C@@H](O)[C@H]1C(=O)N2C(C(=O)O)=C(SCCNC=N)C[C@H]12` [IMIPENEM ANHYDROUS]: 48 µg/mL (≈ 160 µM); for `C[C@@H](O)[C@H]1C(=O)N2C(C(=O)O)=C(S[C@@H]3CN[C@H](C(=O)N(C)C)C3)[C@H](C)[C@H]12` [MEROPENEM]: 24 µg/mL (≈ 62.6 µM); for `CO[C@@]1(NC(=O)C(C(=O)O)c2ccc(O)cc2)C(=O)N2C(C(=O)O)=C(CSc3nnnn3C)CO[C@@H]21` (stereo partly specified) [MOXALACTAM]: more than 256 µg/mL. For `CCn1cc(C(=O)O)c(=O)c2ccc(C)nc21` [NALIDIXIC ACID], the MIC was more than 256 µg/mL. Take `CCN[C@@H]1C[C@H](N)[C@@H](O[C@H]2OC(CN)=CC[C@H]2N)[C@H](O)[C@H]1O[C@H]1OC[C@](C)(O)[C@H](NC)[C@H]1O` [NETILMICIN]: the MIC turned out to be 8 µg/mL (≈ 16.8 µM). Turning to `CC1COc2c(N3CCN(C)CC3)c(F)cc3c(=O)c(C(=O)O)cn1c23` (stereo unspecified) [OFLOXACIN], the MIC was more than 32 µg/mL. The same measure for `CCn1cc(C(=O)O)c(=O)c2cc(F)c(N3CCN(C)CC3)cc21` [PEFLOXACIN]: more than 256 µg/mL.

In the case of `CCN1CCN(C(=O)N[C@@H](C(=O)N[C@@H]2C(=O)N3[C@@H]2SC(C)(C)[C@@H]3C(=O)O)c2ccccc2)C(=O)C1=O` [PIPERACILLIN], the MIC was more than 256 µg/mL.

For the compound `CC1(C)S[C@@H]2[C@H](NC(=O)[C@H](C(=O)O)c3ccsc3)C(=O)N2[C@H]1C(=O)O` [TICARCILLIN], the minimal inhibitory concentration (MIC) was more than 256 µg/mL. As to GENTAMICIN, the MIC was 8 µg/mL.
